Laboratory results from patent US8143393B2, “Substituted 4-amino-pyrrolotriazine derivatives useful for treating hyper-proliferative disorders and diseases associated with angiogenesis” (Bayer HealthCare LLC, priority 2005, dated 2012).

Target: T1, FGFR-1 (Homo sapiens, UniProt P11362)
T1 construct: GST; made in house
Assay: FGFR-1 TR-FRET biochemical assay
Description: FGFR-1TR-FRET Biochemical Assay
The FGFR-1 Assay was performed on half well 96-well opaque plates (Costar 3915) in a LANCE format. LANCE is a homogenous time resolved fluormetry based application available through Perkin Elmer. For this assay, 50 uL reactions were set up using: 0.6 uM ATP (Sigma), 25 nM poly GT-biotin (CIS BIO International), 2 nM Eu-labelled phospho-Tyr Ab (PY20 PerkinElmer), 10 nM Streptavidin-APC (Perkin Elmer), 5 nM FGFR1-GST (generated by DRT, Bayer Healthcare), 1% DMSO, 50 mM HEPES pH 7.5, 10 mM MgCl2, 0.1 mM EDTA, 0.015% Brij, 0.1 mg/ml BSA, 0.1% B-mercaptoethanol. All reactions were initiated with the addition of enzyme and were left to incubate for one hour at room temperature. Time-resolved fluorescence was then read on a Perkin Elmer VictorV Multilabel counter. The reading protocol uses an excitation wavelength at 340 nm and emission reads at both 615 and 665 nm. Signal was calculated as a ratio: (Flourescence at 665 nm/Flourescence at 615 nM)*10000 for each well. The background control used for this assay is the signal produced with all assay components excluding ATP. For IC50 generation, compounds were added prior to the enzyme initiation. A 50-fold stock plate was made with compounds serially diluted 1:5 in a 50% DMSO/50% dH2O solution. A 1 μL addition of the stock to the assay wells gave final compound concentrations ranging from 10 μM-0.128 nM in 1% DMSO. The data were expressed as percent inhibition: % inhibition=100−((Signal with inhibitor−background)/(Signal without inhibitor−background))*100.

[1] = 0.6 uM ATP, 5 nM FGFR1-GST, bounds given in nM
[2] = upper bound of the bin 'greater than 100 nM but less than 1 μM' (lower bound in E1)

T1 sequence (P11362 22-822): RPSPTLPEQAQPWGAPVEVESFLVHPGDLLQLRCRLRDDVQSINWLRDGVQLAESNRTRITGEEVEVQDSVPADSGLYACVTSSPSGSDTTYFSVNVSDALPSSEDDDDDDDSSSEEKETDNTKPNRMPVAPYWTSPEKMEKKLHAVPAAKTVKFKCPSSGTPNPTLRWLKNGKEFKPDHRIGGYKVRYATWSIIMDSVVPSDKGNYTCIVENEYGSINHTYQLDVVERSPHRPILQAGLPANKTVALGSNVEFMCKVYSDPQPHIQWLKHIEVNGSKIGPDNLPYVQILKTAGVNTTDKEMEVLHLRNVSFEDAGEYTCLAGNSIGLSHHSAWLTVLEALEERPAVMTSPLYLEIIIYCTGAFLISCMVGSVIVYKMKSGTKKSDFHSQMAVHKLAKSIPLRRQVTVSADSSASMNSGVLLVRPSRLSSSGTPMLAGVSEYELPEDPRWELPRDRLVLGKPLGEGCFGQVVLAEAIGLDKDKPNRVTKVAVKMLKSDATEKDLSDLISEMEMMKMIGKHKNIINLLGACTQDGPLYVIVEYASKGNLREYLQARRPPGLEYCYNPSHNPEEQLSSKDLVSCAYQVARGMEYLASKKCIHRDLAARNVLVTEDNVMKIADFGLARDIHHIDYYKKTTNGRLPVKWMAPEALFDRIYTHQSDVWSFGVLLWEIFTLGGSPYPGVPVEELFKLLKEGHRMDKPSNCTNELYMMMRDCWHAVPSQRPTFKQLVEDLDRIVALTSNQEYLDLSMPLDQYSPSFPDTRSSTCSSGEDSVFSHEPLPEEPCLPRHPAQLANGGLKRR

| IC50 [1] [nM] | IC50 [2] [nM] | SMILES |
| --- | --- | --- |
| < 10 |  | CC(C)(C)c1cc(NC(=O)Nc2ccc(-c3cc(CN4CCOCC4)n4ncnc(N)c34)cc2)on1 [Example 2, N-{4-[4-amino-7-(morpholin-4-ylmethyl)pyrrolo[2,1-f][1,2,4]triazin-5-yl]phenyl}-N′-(3-tert-butylisoxazol-5-yl)urea] |
| > 100 | < 1000 | Nc1ncnn2c(CN3CCOCC3)cc(-c3cc(F)c(NC(=O)Nc4cc(C(F)(F)F)ccc4F)c(F)c3)c12 [Example 7, N-{4-[4-amino-7-(morpholin-4-ylmethyl)-pyrrolo[2,1-f][1,2,4]triazin-5-yl]-2,6-difluorophenyl}-N′-[Z-fluoro-5-(trifluoro-methyl)phenyl]urea] |
| < 10 |  | Nc1ncnn2c(CN3CCOCC3)cc(-c3ccc(NC(=O)Nc4cc(C(F)(F)F)ccc4F)nc3)c12 [Example 9, N-{5-[4-amino-7-(morpholin-4-ylmethyl)pyrrolo[2,1-f][1,2,4]triazin-5-yl]pyridin-2-yl}-N′-[2-fluoro-5-(trifluoromethyl)phenyl]urea] |
| < 10 |  | Nc1ncnn2c(CN3CCOCC3)cc(-c3ccc(NC(=O)Nc4cc(C(F)(F)F)ccn4)cc3F)c12 [Example 11, N-{4-[4-amino-7-(morpholin-4-ylmethyl)pyrrolo[2,1-f][1,2,4]triazin-5-yl]-3-fluorophenyl}-N′-[4-(trifluoromethyl)pyridin-2-yl]urea] |
| < 10 |  | Nc1ncnn2c(CN3CCOCC3)cc(-c3ccc(NC(=O)Nc4cc(C(F)(F)F)ccn4)nc3)c12 [Example 12, N-{5-[4-amino-7-(morpholin-4-ylmethyl)pyrrolo[2,1-f][1,2,4]triazin-5-yl]pyridin-2-yl}-N′-[4-(trifluoromethyl)pyridin-2-yl]urea] |
| > 100 | < 1000 | Nc1ncnn2c(CN3CCOCC3)cc(-c3cc(F)c(NC(=O)Nc4cc(C(F)(F)F)ccn4)c(F)c3)c12 [Example 14, N-{4-[4-amino-7-(morpholin-4-ylmethyl)pyrrolo[2,1-f][1,2,4]triazin-5-yl]-2,6-difluorophenyl}-N′-[4-(trifluoromethyl)pyridin-2-yl]urea] |
| < 10 |  | Nc1ncnn2c(CN3CCOCC3)cc(-c3ccc(NC(=O)Nc4ccc(F)c(C(F)(F)F)c4)nc3)c12 [Example 18, N-{5-[4-amino-7-(morpholin-4-ylmethyl)pyrrolo[2,1-f][1,2,4]triazin-5-yl]pyridin-2-yl}-N′-[4-fluoro-3-(trifluoromethyl)phenyl]urea] |
| < 10 |  | Nc1ncnn2c(CN3CCOCC3)cc(-c3ccc(NC(=O)Nc4ccc(Cl)c(C(F)(F)F)c4)nc3)c12 [Example 19, N-{5-[4-amino-7-(morpholin-4-ylmethyl)pyrrolo[2,1-f][1,2,4]triazin-5-yl]pyridin-2-yl}-N′-[4-chloro-3-(trifluoromethyl)phenyl]urea] |
| < 10 |  | Nc1ncnn2c(CN3CCOCC3)cc(-c3ccc(NC(=O)Nc4cccc(C(F)(F)F)c4)nc3)c12 [Example 20, N-{5-[4-amino-7-(morpholin-4-ylmethyl)pyrrolo[2,1-f][1,2,4]triazin-5-yl]pyridin-2-yl}-N′-[3-(trifluoromethyl)phenyl]urea] |
| 10 to 100 |  | Nc1ncnn2c(CN3CCOCC3)cc(-c3ccc(NC(=O)Nc4cccc(C(F)(F)F)c4F)nc3)c12 [Example 21, N-{5-[4-amino-7-(morpholin-4-ylmethyl)pyrrolo[2,1-f][1,2,4]triazin-5-yl]pyridin-2-yl}-N′-[2-fluoro-3-(trifluoromethyl)phenyl]urea] |
| < 10 |  | Nc1ncnn2c(CN3CCOCC3)cc(-c3ccc(NC(=O)Nc4cc(F)cc(C(F)(F)F)c4)nc3)c12 [Example 22, N-{5-[4-amino-7-(morpholin-4-ylmethyl)pyrrolo[2,1-f][1,2,4]triazin-5-yl]pyridin-2-yl}-N′-[3-fluoro-5-(trifluoromethyl)phenyl]urea] |
| < 10 |  | Cc1cc(-c2cc(CN3CCOCC3)n3ncnc(N)c23)ccc1NC(=O)Nc1cc(C(F)(F)F)ccn1 [Example 26, N-{4-[4-amino-7-(morpholin-4-ylmethyl)pyrrolo[2,1-f][1,2,4]triazin-5-yl]-2-methylphenyl}-N′-[4-(trifluoromethyl)pyridin-2-yl]urea] |
| < 10 |  | Cc1cc(-c2cc(CN3CCOCC3)n3ncnc(N)c23)ccc1NC(=O)Nc1ccc(F)c(C(F)(F)F)c1 [Example 27, N-{4-[4-amino-7-(morpholin-4-ylmethyl)pyrrolo[2,1-f][1,2,4]triazin-5-yl]-2-methylphenyl}-N′-[4-fluoro-3-(trifluoromethyl)phenyl]urea] |
| < 10 |  | Cc1cc(-c2cc(CN3CCOCC3)n3ncnc(N)c23)ccc1NC(=O)Nc1cc(F)cc(C(F)(F)F)c1 [Example 28, N-{4-[4-amino-7-(morpholin-4-ylmethyl)pyrrolo[2,1-f][1,2,4]triazin-5-yl]-2-methylphenyl}-N′-[3-fluoro-5-(trifluoromethyl)phenyl]urea] |
| < 10 |  | Cc1cc(NC(=O)Nc2cc(C(F)(F)F)ccc2F)ccc1-c1cc(CN2CCOCC2)n2ncnc(N)c12 [Example 29, N-{4-[4-amino-7-(morpholin-4-ylmethyl)pyrrolo[2,1-f][1,2,4]triazin-5-yl]-3-methylphenyl}-N′-[2-fluoro-5-(trifluoromethyl)phenyl]urea] |
| 10 to 100 |  | COc1cc(-c2cc(CN3CCOCC3)n3ncnc(N)c23)ccc1NC(=O)Nc1cc(C(C)(C)C)no1 [Example 30, N-{4-[4-amino-7-(morpholin-4-ylmethyl)pyrrolo[2,1-f][1,2,4]triazin-5-yl]-2-methoxyphenyl}-N′-(3-tert-butylisoxazol-5-yl)urea] |
| 10 to 100 |  | COc1cc(-c2cc(CN3CCOCC3)n3ncnc(N)c23)ccc1NC(=O)Nc1cc(C(F)(F)F)ccn1 [Example 31, N-{4-[4-amino-7-(morpholin-4-ylmethyl)pyrrolo[2,1-f][1,2,4]triazin-5-yl]-2-methoxyphenyl}-N′-[4-(trifluoromethyl)pyridin-2-yl]urea] |
| 10 to 100 |  | COc1cc(-c2cc(CN3CCOCC3)n3ncnc(N)c23)ccc1NC(=O)Nc1ccc(F)c(C(F)(F)F)c1 [Example 32, N-{4-[4-amino-7-(morpholin-4-ylmethyl)pyrrolo[2,1-f][1,2,4]triazin-5-yl]-2-methoxyphenyl}-N′-[4-fluoro-3-(trifluoromethyl)phenyl]urea] |
| 10 to 100 |  | COc1cc(-c2cc(CN3CCOCC3)n3ncnc(N)c23)ccc1NC(=O)Nc1cccc(OC(F)(F)F)c1 [Example 33, N-{4-[4-amino-7-(morpholin-4-ylmethyl)pyrrolo[2,1-f][1,2,4]triazin-5-yl]-2-methoxyphenyl}-N′-[3-(trifluoromethoxy)phenyl]urea] |
| 10 to 100 |  | COc1cc(-c2cc(CN3CCOCC3)n3ncnc(N)c23)ccc1NC(=O)Nc1cc(C(F)(F)F)ccc1Cl [Example 35, N-{4-[4-amino-7-(morpholin-4-ylmethyl)pyrrolo[2,1-f][1,2,4]triazin-5-yl]-2-methoxyphenyl}-N′-[2-chloro-5-(trifluoromethyl)phenyl]urea] |
| 10 to 100 |  | COc1cc(-c2cc(CN3CCOCC3)n3ncnc(N)c23)ccc1NC(=O)Nc1cc(C(F)(F)F)ccc1F [Example 36, N-{4-[4-amino-7-(morpholin-4-ylmethyl)pyrrolo[2,1-f][1,2,4]triazin-5-yl]-2-methoxyphenyl}-N′-[2-fluoro-5-(trifluoromethyl)phenyl]urea] |
| 10 to 100 |  | COc1cc(NC(=O)Nc2cc(C(F)(F)F)ccc2F)ccc1-c1cc(CN2CCOCC2)n2ncnc(N)c12 [Example 37, N-{4-[4-amino-7-(morpholin-4-ylmethyl)pyrrolo[2,1-f][1,2,4]-triazin-5-yl]-3-methoxyphenyl}-N′-[2-fluoro-5-(trifluoromethyl)phenyl]urea] |
| 10 to 100 |  | COc1cc(NC(=O)Nc2cc(C(F)(F)F)ccn2)ccc1-c1cc(CN2CCOCC2)n2ncnc(N)c12 [Example 38, N-{4-[4-amino-7-(morpholin-4-ylmethyl)pyrrolo[2,1-f][1,2,4]triazin-5-yl]-3-methoxyphenyl}-N′-[4-(trifluoromethyl)pyridin-2-yl]urea] |
| < 10 |  | Nc1ncnn2c(CN3CCNC(=O)C3)cc(-c3ccc(NC(=O)Nc4cc(C(F)(F)F)ccc4F)cc3)c12 [Example 39, N-(4-{4-amino-7-[(3-oxopiperazin-1-yl)methyl]pyrrolo[2,1-f][1,2,4]triazin-5-yl}phenyl)-N′-[2-fluoro-5-(trifluoromethyl)phenyl]urea] |
| < 10 |  | Nc1ncnn2c(CN3CCNC(=O)C3)cc(-c3ccc(NC(=O)Nc4cc(C(F)(F)F)ccc4F)c(F)c3)c12 [Example 40, N-(4-{4-amino-7-[(3-oxopiperazin-1-yl)methyl]pyrrolo[2,1-f][1,2,4]triazin-5-yl}-2-fluorophenyl)-N′-[2-fluoro-5-(trifluoromethyl)phenyl]urea] |
| < 10 |  | Nc1ncnn2c(CN3CCNC(=O)C3)cc(-c3ccc(NC(=O)Nc4cc(C(F)(F)F)ccn4)cc3)c12 [Example 41, N-(4-{4-amino-7-[(3-oxopiperazin-1-yl)methyl]pyrrolo[2,1-f][1,2,4]triazin-5-yl}phenyl)-N′-[4-(trifluoromethyl)pyridin-2-yl]urea] |
